From patent US7931904B2, “Modulation of MUC1 activity” (Dana Farber Cancer Institute, Inc., priority 2005, dated 2011)

Experiments:
HCT116/MUC1 cells [1] = experiment: anti-p53 immunoprecipitation and anti-MUC1 C-ter immunoblot; format: cell-based, human; conditions: 50 or 100 μM, 24 h
Procedure: (§1) Immunoblotting and immunoprecipitation. Cell lysates were prepared from subconfluent cells as previously described [Wei et al. (2003) J. Biol. Chem. 278:29288-29297]. Immunoblot analysis was performed with anti-p53 antibody (Ab-2, Ab-6; Oncogene Research Products, San Diego, Calif.), anti-MUC1 N-ter antibody [the DF3 monoclonal antibody that binds to the N-terminal segment of human MUC1; Kufe et al. (1984) Hybridoma 3:223-232], anti-MUC1 C-ter antibody (Ab-5 that binds to the C-terminal segment of human MUC1; Neomarkers, Freemont, Calif.), anti-β-actin antibody (Sigma), anti-Myc antibody (Ab-1; Oncogene Research Products), anti-Bax antibody antibody (Santa Cruz Biotechnology; Santa Cruz, Calif.) and anti-p21 (Santa Cruz Biotechnology). Lysates were subjected to immunoprecipitation with anti-p53 or anti-Myc antibody and the immune complexes were analyzed by immunoblotting.

ZR-75-1 cells [2] = experiment: as above; format: cell-based, human; conditions: 50 or 100 μM, 24 h
Procedure: as §1

HCT116/MUC1 cells [3] = experiment: ChIP with anti-MUC1 C-ter antibody, p21 gene p53RE2; format: cell-based, human; conditions: 50 μM, kinetic analysis
Procedure: (§2) Chromatin immunoprecipitation (ChIP) and Repeat ChIP (Re-ChIP) assays. ChIP assays were performed as previously described [Shang et al. (2000) Cell 103:843-852] using anti-MUC1 C-ter antibody, anti-p53 antibody (Ab-6; Oncogene Research Products), anti-CBP antibody (C-1; Santa Cruz Biotechnology), anti-HDAC1 antibody (Upstate Biotechnology Inc., Waltham, Mass.), anti-Ac-H4 (Upstate Biotechnology Inc.), anti-TBP antibody (58C9; Santa Cruz Biotechnology), anti-TFIIB antibody (IIB8; Santa Cruz Biotechnology), or anti-TAFII250 antibody (6B3; Santa Cruz Biotechnology). For PCR, 2 μl from a 50 μl DNA extraction were used with 30-38 cycles of amplification. The primers for the p21 gene promoter p53-responsive elements (p53RE1 and p53RE2) have been previously described [Liu et al. (2003) J. Biol. Chem. 277:17557-17565]. The primers for the p21 gene control region (CR) were (forward: 5′-[…]-3′ (SEQ ID NO:14); reverse 5′-[…]-3′ (SEQ ID NO:15)) and the p21 gene PP were (forward: 5′-[…]-3′ (SEQ ID NO:16); reverse: 5′-[…]-3′ (SEQ ID NO:17)). Primers used for the Bax gene promoter p53RE were (forward: 5′-[…]-3′ (SEQ ID NO:18); reverse: 5′-[…]-3′ (SEQ ID NO:19)), Bax gene control region (CR) were (forward: 5′-[…]-3′ (SEQ ID NO:20); reverse: 5′-[…]-3′ (SEQ ID NO:21)) and the Bax gene PP were (forward: 5′-[…]-3′ (SEQ ID NO:22); reverse: 5′-[…]-3′ (SEQ ID NO:23)).

ZR-75-1 cells [4] = experiment: as above; format: cell-based, human; conditions: 50 μM, kinetic analysis
Procedure: as §2

HCT116/vector cells [5] = experiment: ChIP with anti-p53 antibody, p21 gene p53RE2; format: cell-based, human; conditions: 50 μM, 8 h
Procedure: as §2

HCT116/MUC1 cells [6] = experiment: ChIP with anti-MUC1 C-ter antibody, Bax gene PP; format: cell-based, human; conditions: 50 μM, time course
Procedure: as §2

ZR-75-1 cells [7] = experiment: ChIP with anti-MUC1 C-ter antibody, Bax gene PP; format: cell-based, human; conditions: 50 μM, time course
Procedure: as §2

HCT116/MUC1 cells [8] = experiment: Flow cytometry of cell cycle (DNA content); format: cell-based, human; conditions: 48 h
Procedure: (§3) Flow cytometry. Cells were fixed with 80% ice-cold ethanol, incubated in phosphate buffered saline (PBS) containing 30 μg/ml RNase (Roche Applied Science) for 60 min at 37° C. and then stained with propidium iodide (Sigma) for 30 min at room temperature in the dark. DNA content was analyzed by flow cytometry (Coulter EPICS XL-MCL; Miami, Fla.).

HCT116/vector cells [9] = experiment: Flow cytometry of cell cycle (DNA content); format: cell-based, human; conditions: 48 h
Procedure: as §3

[10] = tested on: HCT116/MUC1 as compared to HCT116/vector cells; experiment: Colony formation assay; format: cell-based, human; conditions: 12-48 h treatment, 8 d culture
Procedure: (§4) Colony formation assays. Aliquots containing 500 cells were plated into individual wells of 6-well culture plates containing 2 ml/well complete medium and incubated for 18-24 h at 37° C. The cells were treated with CDDP or etoposide for 12-48 h, washed and incubated for 8 d. Resulting colonies were stained with crystal violet and counted manually.

ZR-75-1 cells [11] = experiment: Colony formation assay; format: cell-based, human; conditions: ZR-75-1/vector vs ZR-75-1/MUC1siRNA cells, 12-48 h treatment, 8 d culture
Procedure: as §4

p53 [12] = biological target: T1, p53 (Homo sapiens, UniProt P04637); experiment: GST pull-down of 35S-labeled p53 by GST-MUC1-CD variants; format: binding; conditions: GST fusion proteins, 90 min at 4° C.
T1 construct: made in house; host or cells: cell-free TNT in vitro transcription/translation reaction (Promega)
Text: GST pull-down assays. […] After washing, the adsorbed proteins were resolved by SDS-PAGE and analyzed by autoradiography or Coomassie blue staining.

p53 [13] = biological target: p53 (Homo sapiens, UniProt P04637, R273H); experiment: Co-immunoprecipitation of Myc-MUC1-CD variants with p53 in transfected U2OS cells; format: cell-based; conditions: transiently transfected U2OS cells
Procedure: as §1
Plasmid construction and transfection. […] Transfections were performed in 60 mm tissue culture dishes using Fugene®-6 (Roche Applied Science, Indianapolis, Ind.) or, for the luciferase assays, in 24 well tissue culture plates using the calcium phosphate method (Invitrogen, Carlsbad, Calif.). […]

N.N.[Cl][Pt][Cl] [cisplatin]
association of p53 and MUC1 (HCT116/MUC1 cells [1]): increase in the association of p53 and MUC1
binding of endogenous MUC1 and p53 (ZR-75-1 cells [2]): Increased binding of endogenous MUC1 and p53
MUC1 occupancy of p21 gene p53RE2 (HCT116/MUC1 cells [3]): increases
MUC1 occupancy of p21 gene p53RE2 (ZR-75-1 cells [4]): increases
p53 occupancy of the p21 gene p53RE2 (HCT116/vector cells [5]): increased
MUC1 occupancy of the Bax gene PP (HCT116/MUC1 cells [6]): increased through 4-6 h
MUC1 occupancy of the Bax gene PP (ZR-75-1 cells [7]): increased through 4-6 h
cell cycle progression (HCT116/MUC1 cells [8]): G1 arrest of cell cycle progression
cell cycle progression (HCT116/vector cells [9]): G1 arrest of cell cycle progression
clonogenic survival of drug-treated cells [10]: higher
clonogenic survival following drug treatment (ZR-75-1 cells [11]): increased by MUC1 expression

COc1cc([C@@H]2c3cc4c(cc3[C@@H](O[C@@H]3O[C@@H]5CO[C@@H](C)O[C@H]5[C@H](O)[C@H]3O)[C@H]3COC(=O)[C@H]23)OCO4)cc(OC)c1O [etoposide]
association of p53 and MUC1 (HCT116/MUC1 cells [1]): increase in the association of p53 and MUC1
binding of endogenous MUC1 and p53 (ZR-75-1 cells [2]): Increased binding of endogenous MUC1 and p53
MUC1 occupancy of p21 gene p53RE2 (HCT116/MUC1 cells [3]): increases
MUC1 occupancy of p21 gene p53RE2 (ZR-75-1 cells [4]): increases
p53 occupancy of the p21 gene p53RE2 (HCT116/vector cells [5]): increased
MUC1 occupancy of the Bax gene PP (HCT116/MUC1 cells [6]): increased through 4-6 h
MUC1 occupancy of the Bax gene PP (ZR-75-1 cells [7]): increased through 4-6 h
cell cycle progression (HCT116/MUC1 cells [8]): G1 arrest of cell cycle progression
cell cycle progression (HCT116/vector cells [9]): G1 arrest of cell cycle progression
clonogenic survival of drug-treated cells [10]: higher
clonogenic survival following drug treatment (ZR-75-1 cells [11]): increased by MUC1 expression

MUC1-CD(1-51): deletion variant of MUC1-CD, amino acids 1-51 (SEQ ID NO:5) (CQCRRKNYGQLDIFPARDAYHPMSEYPTYHTHGRYVPPSSTNRSPYEKVSE; listed as Homo sapiens)
binding to 35S-labeled p53 in vitro (p53 [12]): sufficient to form a complex with p53 in vitro
complex formation with p53 in cells (p53 [13]): in vivo binding of p53
